In US20080051387A1, “TETRAHYDROPYRIDO[3,4-D]PYRIMIDINES AND RELATED ANALOGUES” (priority 2006, published 2008):

biological target: T1, chimeric human H3 receptor (Homo sapiens, UniProt Q9Y5N1); test: Chimeric human H3 receptor screening GTP binding assay (inhibition of histamine-stimulated GTP-gamma35S binding, Example 8); type: biochemical; conditions: 1 h; assay described in Example 8; symbol "!" in column headed Ki; read-out: Ki ("!": percent inhibition of agonist-induced GTP-gammaS binding to H3)
T1 construct: rat Galpha-i2 (Gnai2, rat); made in house; host or cells: Sf9 insect cells (baculovirus); P2 membranes
In short: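 Compound tested at 4 μM against 1 μM histamine stimulation; 125 pM GTP-gamma35S binding measured by filtration and scintillation after 60 min at room temperature. Membranes from Sf9 cells expressing chimeric human H3 plus G-protein subunits, in Tris pH 7.4/NaCl/MgCl2/GDP buffer; values are % inhibition after nonspecific subtraction.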

T1 sequence (Q9Y5N1 with tags, fused parts or gaps): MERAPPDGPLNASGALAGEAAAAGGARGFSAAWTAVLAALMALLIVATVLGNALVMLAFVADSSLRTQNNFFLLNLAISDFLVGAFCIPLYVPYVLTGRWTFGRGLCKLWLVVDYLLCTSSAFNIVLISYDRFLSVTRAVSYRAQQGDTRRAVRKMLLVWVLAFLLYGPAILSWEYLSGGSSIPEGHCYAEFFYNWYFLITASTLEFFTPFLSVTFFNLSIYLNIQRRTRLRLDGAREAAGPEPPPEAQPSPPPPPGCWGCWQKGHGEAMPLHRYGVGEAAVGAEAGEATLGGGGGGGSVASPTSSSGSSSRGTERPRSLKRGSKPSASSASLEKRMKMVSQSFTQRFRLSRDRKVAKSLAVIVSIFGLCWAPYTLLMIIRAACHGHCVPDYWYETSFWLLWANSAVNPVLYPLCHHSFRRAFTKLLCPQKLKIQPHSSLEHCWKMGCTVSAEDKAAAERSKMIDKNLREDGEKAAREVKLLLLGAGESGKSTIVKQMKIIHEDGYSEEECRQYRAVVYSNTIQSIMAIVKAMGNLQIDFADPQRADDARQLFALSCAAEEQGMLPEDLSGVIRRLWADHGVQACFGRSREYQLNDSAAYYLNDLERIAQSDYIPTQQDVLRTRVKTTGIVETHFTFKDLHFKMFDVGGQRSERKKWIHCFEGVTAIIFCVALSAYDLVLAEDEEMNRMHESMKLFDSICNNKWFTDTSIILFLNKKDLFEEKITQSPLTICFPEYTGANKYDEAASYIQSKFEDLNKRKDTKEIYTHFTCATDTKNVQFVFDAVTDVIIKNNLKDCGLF

| inhibition at 4 µM [%] | Compound |
| --- | --- |
| ≥ 90 | O=C(/C=C/c1cccc2ccccc12)N1CCc2cnc(N3CCN(C4CCC4)CC3)nc2CC1 [Compound 578, 2-(4-cyclobutylpiperazin-1-yl)-7-[(2E)-3-(1-naphthyl)prop-2-enoyl]-6,7,8,9-tetrahydro-5H-pyrimido[4,5-d]azepine] |
| ≥ 90 | O=C(c1ccc(OCC(F)(F)F)nc1)N1CCc2cnc(N3CCN(C4CCC4)CC3)nc2CC1 [Compound 474, 2-(4-cyclobutylpiperazin-1-yl)-7-{[6-(2,2,2-trifluoroethoxy)pyridin-3-yl]carbonyl}-6,7,8,9-tetrahydro-5H-pyrimido[4,5-d]azepine] |
| ≥ 90 | Cc1cc(C(=O)N2CCc3cnc(N4CCN(C5CCC5)CC4)nc3CC2)ccc1Cl [Compound 395, 7-(4-chloro-3-methylbenzoyl)-2-(4-cyclobutylpiperazin-1-yl)-6,7,8,9-tetrahydro-5H-pyrimido[4,5-d]azepine] |
| ≥ 90 | O=C(c1cccc(C(F)(F)F)c1F)N1CCc2cnc(N3CCN(C4CCC4)CC3)nc2CC1 [Compound 399, 2-(4-cyclobutylpiperazin-1-yl)-7-[2-fluoro-3-(trifluoromethyl)benzoyl]-6,7,8,9-tetrahydro-5H-pyrimido[4,5-d]azepine] |
| ≥ 90 | Cn1c(C(=O)N2CCc3cnc(N4CCN(C5CCC5)CC4)nc3CC2)cc2ccccc21 [Compound 461, 2-(4-cyclobutylpiperazin-1-yl)-7-[(1-methyl-1H-indol-2-yl)carbonyl]-6,7,8,9-tetrahydro-5H-pyrimido[4,5-d]azepine] |
| ≥ 90 | O=C(c1c(F)cccc1F)N1CCc2cnc(N3CCN(C4CCC4)CC3)nc2CC1 [Compound 389, 2-(4-cyclobutylpiperazin-1-yl)-7-(2,6-difluorobenzoyl)-6,7,8,9-tetrahydro-5H-pyrimido[4,5-d]azepine] |
| ≥ 90 | CCCc1ccc(C(=O)N2CCc3cnc(N4CCN(C5CCC5)CC4)nc3CC2)s1 [Compound 452, 2-(4-cyclobutylpiperazin-1-yl)-7-[(5-propyl-2-thienyl)carbonyl]-6,7,8,9-tetrahydro-5H-pyrimido[4,5-d]azepine] |
| ≥ 90 | Cc1ccc(Oc2ccccc2C(=O)N2CCc3cnc(N4CCN(C5CCC5)CC4)nc3CC2)cc1 [Compound 418, 2-(4-cyclobutylpiperazin-1-yl)-7-[2-(4-methylphenoxy)benzoyl]-6,7,8,9-tetrahydro-5H-pyrimido[4,5-d]azepine] |

same assay, conditions: 1 h; assay of Example 8; symbol "!" in column headed Ki; read-out: percent inhibition of agonist-induced GTP-gammaS binding to H3

| inhibition at 4 µM [%] | Compound |
| --- | --- |
| ≥ 90 | O=C(Cc1c(Cl)ccc(Cl)c1Cl)N1CCc2cnc(N3CCN(C4CCC4)CC3)nc2CC1 [Compound 300, 2-(4-cyclobutylpiperazin-1-yl)-7-[(2,3,6-trichlorophenyl)acetyl]-6,7,8,9-tetrahydro-5H-pyrimido[4,5-d]azepine] |
| ≥ 90 | CC(C)C(=O)N1CCc2cnc(N3CCN(C4CCC4)CC3)nc2CC1 [Compound 222, 2-(4-cyclobutylpiperazin-1-yl)-7-isobutyryl-6,7,8,9-tetrahydro-5H-pyrimido[4,5-d]azepine] |
| ≥ 90 | COc1cc(Br)c(CC(=O)N2CCc3cnc(N4CCN(C5CCC5)CC4)nc3CC2)cc1OC [Compound 299, 7-[(2-bromo-4,5-dimethoxyphenyl)acetyl]-2-(4-cyclobutylpiperazin-1-yl)-6,7,8,9-tetrahydro-5H-pyrimido[4,5-d]azepine] |
| ≥ 90 | O=C(/C=C/c1c(F)cccc1Cl)N1CCc2cnc(N3CCN(C4CCC4)CC3)nc2CC1 [Compound 585, 7-[(2E)-3-(2-chloro-6-fluorophenyl)prop-2-enoyl]-2-(4-cyclobutylpiperazin-1-yl)-6,7,8,9-tetrahydro-5H-pyrimido[4,5-d]azepine] |
| ≥ 90 | O=C(COc1ccc2ccccc2c1)N1CCc2cnc(N3CCN(C4CCC4)CC3)nc2CC1 [Compound 336, 2-(4-cyclobutylpiperazin-1-yl)-7-[(2-naphthyloxy)acetyl]-6,7,8,9-tetrahydro-5H-pyrimido[4,5-d]azepine] |
| ≥ 90 | O=C(Cc1ccccc1Br)N1CCc2cnc(N3CCN(C4CCC4)CC3)nc2CC1 [Compound 297, 7-[(2-bromophenyl)acetyl]-2-(4-cyclobutylpiperazin-1-yl)-6,7,8,9-tetrahydro-5H-pyrimido[4,5-d]azepine] |
| ≥ 90 | CC(Oc1ccc(Cl)cc1Cl)C(=O)N1CCc2cnc(N3CCN(C4CCC4)CC3)nc2CC1 (stereo not drawn) [Compound 338, 2-(4-cyclobutylpiperazin-1-yl)-7-[2-(2,4-dichlorophenoxy)propanoyl]-6,7,8,9-tetrahydro-5H-pyrimido[4,5-d]azepine] |
| ≥ 90 | COc1cccc(CN2CCc3cnc(N4CCN(C5CCC5)CC4)nc3CC2)c1OC [Compound 260, 2-(4-cyclobutylpiperazin-1-yl)-7-(2,3-dimethoxybenzyl)-6,7,8,9-tetrahydro-5H-pyrimido[4,5-d]azepine] |
| ≥ 90 | O=C(CCC1CCCC1)N1CCc2cnc(N3CCN(C4CCC4)CC3)nc2CC1 [Compound 212, 2-(4-cyclobutylpiperazin-1-yl)-7-(3-cyclopentylpropanoyl)-6,7,8,9-tetrahydro-5H-pyrimido[4,5-d]azepine] |
| ≥ 90 | c1nc2c(c(N3CCN(C4CCC4)CC3)n1)CCN(CC1CCOCC1)CC2 [Compound 271, 4-(4-cyclobutylpiperazin-1-yl)-7-(tetrahydro-2H-pyran-4-ylmethyl)-6,7,8,9-tetrahydro-5H-pyrimido[4,5-d]azepine] |

same assay, conditions: symbol ! in Ki; test compound 4 μM, 1 μM histamine; read-out: percent inhibition of agonist-induced GTP-gammaS binding to H3

| inhibition at 4 µM [%] | Compound |
| --- | --- |
| ≥ 90 | c1nc2c(c(N3CCN(C4CCC4)CC3)n1)CCN(CC1CCOC1)CC2 (stereo not drawn) [Compound 171, 4-(4-cyclobutylpiperazin-1-yl)-7-(tetrahydrofuran-3-ylmethyl)-6,7,8,9-tetrahydro-5H-pyrimido[4,5-d]azepine] |
| ≥ 90 | O=C(c1ccccc1)N1CCc2c(ncnc2N2CCN(C3CCC3)CC2)C1 [Compound 22, 7-benzoyl-4-(4-cyclobutylpiperazin-1-yl)-5,6,7,8-tetrahydropyrido[3,4-d]pyrimidine] |
| ≥ 90 | c1cncc(CN2CCc3ncnc(N4CCN(C5CCC5)CC4)c3CC2)c1 [Compound 154, 4-(4-cyclobutylpiperazin-1-yl)-7-(pyridin-3-ylmethyl)-6,7,8,9-tetrahydro-5H-pyrimido[4,5-d]azepine] |
| ≥ 90 | COCCOCC(=O)N1CCc2c(ncnc2N2CCN(C3CCC3)CC2)C1 [Compound 65, 4-(4-cyclobutylpiperazin-1-yl)-7-[(2-methoxyethoxy)acetyl]-5,6,7,8-tetrahydropyrido[3,4-d]pyrimidine] |
| ≥ 90 | Cc1cccc(C(C)N2CCc3c(ncnc3N3CCN(C4CCC4)CC3)C2)n1 (stereo not drawn) [Compound 110, 4-(4-cyclobutylpiperazin-1-yl)-7-[1-(6-methylpyridin-2-yl)ethyl]-5,6,7,8-tetrahydropyrido[3,4-d]pyrimidine] |
| ≥ 90 | CCC(CC)CN1CCc2c(ncnc2N2CCN(C3CCC3)CC2)C1 [Compound 88, 4-(4-cyclobutylpiperazin-1-yl)-7-(2-ethylbutyl)-5,6,7,8-tetrahydropyrido[3,4-d]pyrimidine] |
| ≥ 90 | c1ccc2c(CN3CCc4nc(N5CCN(C6CCC6)CC5)ncc4C3)ccnc2c1 [Compound 617, 2-(4-cyclobutylpiperazin-1-yl)-6-(quinolin-4-ylmethyl)-5,6,7,8-tetrahydropyrido[4,3-d]pyrimidine] |
| ≥ 90 | c1ccc2nc(CN3CCc4ncnc(N5CCN(C6CCC6)CC5)c4CC3)ccc2c1 [Compound 174, 4-(4-cyclobutylpiperazin-1-yl)-7-(quinolin-2-ylmethyl)-6,7,8,9-tetrahydro-5H-pyrimido[4,5-d]azepine] |
| ≥ 90 | O=C(c1ccno1)N1CCc2c(ncnc2N2CCN(C3CCC3)CC2)C1 [Compound 36, 4-(4-cyclobutylpiperazin-1-yl)-7-(isoxazol-5-ylcarbonyl)-5,6,7,8-tetrahydropyrido[3,4-d]pyrimidine] |
| ≥ 90 | CC(C)CN1CCc2ncnc(N3CCN(C4CCC4)CC3)c2CC1 [Compound 166, 4-(4-cyclobutylpiperazin-1-yl)-7-isobutyl-6,7,8,9-tetrahydro-5H-pyrimido[4,5-d]azepine] |
| ≥ 90 | c1nc2c(c(N3CCN(C4CCC4)CC3)n1)CCN(CC1CC1)C2 [Compound 89, 4-(4-cyclobutylpiperazin-1-yl)-7-(cyclopropylmethyl)-5,6,7,8-tetrahydropyrido[3,4-d]pyrimidine] |
| ≥ 90 | COc1ccc(OC)c(CN2CCc3ncnc(N4CCN(C5CCC5)CC4)c3CC2)c1 [Compound 176, 4-(4-cyclobutylpiperazin-1-yl)-7-(2,5-dimethoxybenzyl)-6,7,8,9-tetrahydro-5H-pyrimido[4,5-d]azepine] |
| ≥ 90 | c1cc(N2CCCC2)ccc1CN1CCc2nc(N3CCN(C4CCC4)CC3)ncc2C1 [Compound 647, 2-(4-cyclobutylpiperazin-1-yl)-6-(4-pyrrolidin-1-ylbenzyl)-5,6,7,8-tetrahydropyrido[4,3-d]pyrimidine] |
| ≥ 90 | Cc1ccccc1C(=O)N1CCc2c(ncnc2N2CCN(C3CCC3)CC2)C1 [Compound 25, 4-(4-cyclobutylpiperazin-1-yl)-7-(2-methylbenzoyl)-5,6,7,8-tetrahydropyrido[3,4-d]pyrimidine] |

same assay, conditions: test compound 4 μM, 1 μM histamine; read-out: percent inhibition of agonist-induced GTP-gammaS binding to H3

| inhibition at 4 µM [%] | Compound |
| --- | --- |
| ≥ 90 | CC(=O)c1ccc(N2CCc3c(ncnc3N3CCN(C4CCC4)CC3)C2)cc1 [Compound 3, 1-{4-[4-(4-Cyclobutylpiperazin-1-yl)-5,8-dihydropyrido[3.4-d]pyrimidin-7(6H)-yl]phenyl}Ethanone] |
